Source: publication PMC9172550, “Novel derivatives of eugenol as potent anti-inflammatory agents via PPARγ agonism: rational design, synthesis, analysis, PPARγ protein binding assay and computational studies” (RSC Advances, 2022)

Assays:
egg albumin = egg albumin (Gallus gallus, UniProt P01012); assay: Albumin denaturation assay (in vitro anti-inflammatory activity); parameters: species or system hen; conditions: means ± SD, n = 3, read-out: percentage inhibition of albumin denaturation
Procedure: In this assay egg albumin is used as protein. Protein denaturation is achieved by keeping the reaction mixture at 70 °C in a water bath for 10 minutes.
The reaction mixture containing 0.2 ml of egg albumin (from fresh hen's eggs), 2.8 ml of phosphate-buffered saline (pH 6.4), and were mixed with 2 ml of the synthesized compounds in varying concentrations. Then the samples were incubated at 37 °C for 20 min and then heated to 70 °C for 20 min. After cooling the samples, the turbidity was measured spectrophotometrically at 660 nm. […] The following formula was used to calculate the percentage inhibition of protein denaturation. [drawing 5]

PPARγ LBD protein = biological target: T1, PPARγ LBD protein (Homo sapiens, UniProt P37231); assay: LanthaScreen TR-FRET competitive ligand displacement (PPARγ protein binding) assay; conditions: for IC50: TR-FRET PPARγ binding, tracer displacement
T1 construct: 1 nM 6xHis-PPAR LBD protein
T1 sequence (P37231 238-503 limits assumed): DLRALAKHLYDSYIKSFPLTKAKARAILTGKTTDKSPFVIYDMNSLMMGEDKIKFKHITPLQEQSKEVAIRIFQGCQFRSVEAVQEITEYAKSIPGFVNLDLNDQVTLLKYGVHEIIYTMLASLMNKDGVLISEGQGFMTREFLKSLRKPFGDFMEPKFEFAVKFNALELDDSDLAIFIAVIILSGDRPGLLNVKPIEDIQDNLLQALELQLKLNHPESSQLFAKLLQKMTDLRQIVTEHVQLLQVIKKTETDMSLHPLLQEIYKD
Procedure: Based on time-resolved fluorescence resonance energy transfer (TR-FRET), the nuclear receptor competitive binding assay was utilized to identify PPARγ ligands. […] The tracer is displaced from PPARγ-LBD by a chemical under test, resulting in a decrease in the FRET signal and a low TR-FRET ratio (Fig. 8).
We performed a time-resolved fluorescence resonance energy transfer (TR-FRET) assay using a black flat bottom 384-well plate and a buffer containing 20 mM potassium phosphate (pH 7.4), 0.5 mM EDTA, 50 mM KCl, and 0.01% Tween-20, 5 mM TCEP. For the TR-FRET coregulator interaction assay, each well contained 400 nM FITC-labeled TRAP220 or NCoR1 peptides, 1 nM LanthaScreen Elite Tb-anti-His Antibody, 4 nM 6xHis-PPARγ LBD protein and 400 nM peptide in TR-FRET buffer in 22.5 μL total volume per well. Each well ([…] per well) included 1 nM 6xHis-PPAR LBD protein, 1 nM LanthaScreen Elite Tb-anti-His Antibody, and 5 nM Fluormone Pan-PPAR Green tracer ligand in TR-FRET buffer for the ligand displacement experiment. Ligand stocks were made by serial dilution in DMSO, then added to wells in triplicate to a final DMSO concentration of 1%, then incubated at room temperature for 1 hour, and read using a BioTek Synergy Neo multimode plate reader. The Tb donor was stimulated at 340 nm, its fluorescence emission was measured at 490 nm, and the FITC emission of the acceptor was detected at 520 nm. The signal at 520 nm/490 nm was used to compute the TR-FRET ratio.[37,38]

Chain of egg albumin (P01012 2-386): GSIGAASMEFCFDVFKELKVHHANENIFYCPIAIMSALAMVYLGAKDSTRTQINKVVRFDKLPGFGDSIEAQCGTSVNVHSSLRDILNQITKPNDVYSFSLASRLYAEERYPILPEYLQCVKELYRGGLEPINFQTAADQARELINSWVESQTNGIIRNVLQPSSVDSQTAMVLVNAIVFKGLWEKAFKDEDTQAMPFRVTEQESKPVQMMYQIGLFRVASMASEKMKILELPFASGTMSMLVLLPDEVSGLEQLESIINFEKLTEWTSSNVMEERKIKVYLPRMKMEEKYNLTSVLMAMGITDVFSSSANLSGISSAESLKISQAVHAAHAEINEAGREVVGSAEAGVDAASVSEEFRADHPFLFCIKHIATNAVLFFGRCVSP

SMILES	inhibition at 6.25 µM (egg albumin)	inhibition at 12.5 µM (egg albumin)	inhibition at 25 µM (egg albumin)	inhibition at 50 µM (egg albumin)	inhibition at 150 µM (egg albumin)	inhibition at 200 µM (egg albumin)	inhibition at 400 µM (egg albumin)	IC50 (PPARγ LBD protein)	Raw Data (RLU) (PPARγ LBD protein; TR-FRET signal at 0.0000512 µM)	Raw Data - Background (RLU) (PPARγ LBD protein; TR-FRET signal at 0.0000512 µM)	Raw Data (RLU) (PPARγ LBD protein; TR-FRET signal at 0.000256 µM)	Raw Data - Background (RLU) (PPARγ LBD protein; TR-FRET signal at 0.000256 µM)	Raw Data (RLU) (PPARγ LBD protein; TR-FRET signal at 0.00128 µM)	Raw Data - Background (RLU) (PPARγ LBD protein; TR-FRET signal at 0.00128 µM)	Raw Data (RLU) (PPARγ LBD protein; TR-FRET signal at 0.0064 µM)	Raw Data - Background (RLU) (PPARγ LBD protein; TR-FRET signal at 0.0064 µM)	Raw Data (RLU) (PPARγ LBD protein; TR-FRET signal at 0.032 µM)	Raw Data - Background (RLU) (PPARγ LBD protein; TR-FRET signal at 0.032 µM)	Raw Data (RLU) (PPARγ LBD protein; TR-FRET signal at 0.16 µM)	Raw Data - Background (RLU) (PPARγ LBD protein; TR-FRET signal at 0.16 µM)	other results
O=C(O)Cc1ccccc1Nc1c(Cl)cccc1Cl [Standard diclofenac, Diclofenac sodium, reference compound]	10 ± 0.463%	15.7 ± 0.429%	27 ± 0.336%	38.5 ± 0.468%	48.3 ± 3.14%	60.9 ± 0.223%	66.29 ± 0.375%														
C=CCc1ccc(OCC(=O)Nc2ccc(OC)cc2)c(OC)c1 [Compound 1B, 2-(4-Allyl-2-methoxyphenoxy)-N-(4-methoxyphenyl) acetamide]	1.71 ± 0.344%	4.57 ± 0.54%	6.82 ± 1.37%	8.59 ± 0.205%	9.45 ± 0.681%	16.4 ± 5.09%	30.7 ± 4.44%	41.5 µM	2.024 RLU	1.789 RLU	1.990 RLU	1.755 RLU	1.965 RLU	1.73 RLU	1.913 RLU	1.678 RLU	1.913 RLU	1.678 RLU	1.960 RLU	1.724 RLU	Raw Data (RLU) (PPARγ LBD protein; TR-FRET signal at 0.8 µM): 2.002 RLU; Raw Data - Background (RLU) (PPARγ LBD protein; TR-FRET signal at 0.8 µM): 1.767 RLU; Raw Data (RLU) (PPARγ LBD protein; TR-FRET signal at 4 µM): 1.855 RLU; Raw Data - Background (RLU) (PPARγ LBD protein; TR-FRET signal at 4 µM): 1.619 RLU; Raw Data (RLU) (PPARγ LBD protein; TR-FRET signal at 20 µM): 1.280 RLU; Raw Data - Background (RLU) (PPARγ LBD protein; TR-FRET signal at 20 µM): 1.045 RLU; Raw Data (RLU) (PPARγ LBD protein; TR-FRET signal at 100 µM): 0.534 RLU; Raw Data - Background (RLU) (PPARγ LBD protein; TR-FRET signal at 100 µM): 0.2989 RLU
C=CCc1ccc(OCC(=O)Nc2ccc(Cl)cc2)c(OC)c1 [Compound 1C, 2-(4-Allyl-2-methoxyphenoxy)-N-(4-chlorophenyl) acetamide]	5.23 ± 4.12%	9.14 ± 0.615%	15.7 ± 1.59%	22.6 ± 1.98%	38.5 ± 1.1%	48.1 ± 1.14%	56.9 ± 1.8%	10.7 µM	2.069 RLU	1.834 RLU	1.896 RLU	1.660 RLU	1.907 RLU	1.672 RLU	1.934 RLU	1.699 RLU	1.989 RLU	1.754 RLU	1.921 RLU	1.686 RLU	Raw Data (RLU) (PPARγ LBD protein; TR-FRET signal at 0.8 µM): 1.922 RLU; Raw Data - Background (RLU) (PPARγ LBD protein; TR-FRET signal at 0.8 µM): 1.687 RLU; Raw Data (RLU) (PPARγ LBD protein; TR-FRET signal at 4 µM): 1.761 RLU; Raw Data - Background (RLU) (PPARγ LBD protein; TR-FRET signal at 4 µM): 1.526 RLU; Raw Data (RLU) (PPARγ LBD protein; TR-FRET signal at 20 µM): 1.058 RLU; Raw Data - Background (RLU) (PPARγ LBD protein; TR-FRET signal at 20 µM): 0.823 RLU; Raw Data (RLU) (PPARγ LBD protein; TR-FRET signal at 100 µM): 0.951 RLU; Raw Data - Background (RLU) (PPARγ LBD protein; TR-FRET signal at 100 µM): 0.716 RLU
C=CCc1ccc(OCC(=O)Nc2cccc(C)c2)c(OC)c1 [Compound 1D, 2-(4-Allyl-2-methoxyphenoxy)-N-m-tolylacetamide]	2.66 ± 1.12%	7.88 ± 3.8%	11.1 ± 3.65%	15.9 ± 7.79%	22.4 ± 5.43%	29.6 ± 3.94%	36.7 ± 4.77%	15 µM	1.92 RLU	1.69 RLU	1.95 RLU	1.72 RLU	1.85 RLU	1.61 RLU	2.07 RLU	1.83 RLU	1.93 RLU	1.70 RLU	1.87 RLU	1.64 RLU	Raw Data (RLU) (PPARγ LBD protein; TR-FRET signal at 0.8 µM): 1.91 RLU; Raw Data - Background (RLU) (PPARγ LBD protein; TR-FRET signal at 0.8 µM): 1.68 RLU; Raw Data (RLU) (PPARγ LBD protein; TR-FRET signal at 4 µM): 1.91 RLU; Raw Data - Background (RLU) (PPARγ LBD protein; TR-FRET signal at 4 µM): 1.67 RLU; Raw Data (RLU) (PPARγ LBD protein; TR-FRET signal at 20 µM): 1.91 RLU; Raw Data - Background (RLU) (PPARγ LBD protein; TR-FRET signal at 20 µM): 1.67 RLU; Raw Data (RLU) (PPARγ LBD protein; TR-FRET signal at 100 µM): 1.40 RLU; Raw Data - Background (RLU) (PPARγ LBD protein; TR-FRET signal at 100 µM): 1.17 RLU
C=CCc1ccc(OCC(=O)Nc2ccc(C)cc2)c(OC)c1 [Compound 1A, 2-(4-Allyl-2-methoxyphenoxy)-N-p-tolylacetamide]	2.42 ± 0.165%	5.7 ± 3.19%	8.72 ± 3.93%	13.3 ± 7.51%	17.2 ± 8.71%	25.4 ± 2.87%	32 ± 2.95%	13.5 µM	2.07 RLU	1.84 RLU	2.10 RLU	1.862 RLU	2.02 RLU	1.787 RLU	1.92 RLU	1.688 RLU	2.00 RLU	1.76 RLU	1.95 RLU	1.716 RLU	Raw Data (RLU) (PPARγ LBD protein; TR-FRET signal at 0.8 µM): 1.99 RLU; Raw Data - Background (RLU) (PPARγ LBD protein; TR-FRET signal at 0.8 µM): 1.754 RLU; Raw Data (RLU) (PPARγ LBD protein; TR-FRET signal at 4 µM): 1.57 RLU; Raw Data - Background (RLU) (PPARγ LBD protein; TR-FRET signal at 4 µM): 1.332 RLU; Raw Data (RLU) (PPARγ LBD protein; TR-FRET signal at 20 µM): 1.07 RLU; Raw Data - Background (RLU) (PPARγ LBD protein; TR-FRET signal at 20 µM): 0.8399 RLU; Raw Data (RLU) (PPARγ LBD protein; TR-FRET signal at 100 µM): 0.54 RLU; Raw Data - Background (RLU) (PPARγ LBD protein; TR-FRET signal at 100 µM): 0.3006 RLU
